Results from ChEMBL document CHEMBL4507277.

How the values were obtained:
[1] = system: Epidermal growth factor receptor (Homo sapiens), P00533 [T790M]; conditions: Compound concentration 1000.0 nM
[2] = target: Tyrosine-protein kinase CSK (Homo sapiens) (UniProt P41240); conditions: Compound concentration 1000.0 nM
[3] = target: Serine/threonine-protein kinase ULK2 (Homo sapiens) (UniProt Q8IYT8); conditions: Compound concentration 1000.0 nM
[4] = target: Tyrosine-protein kinase Tec (Homo sapiens) (UniProt P42680); conditions: Compound concentration 1000.0 nM
[5] = target: Serine/threonine-protein kinase PLK4 (Homo sapiens) (UniProt O00444); conditions: Compound concentration 1000.0 nM
[6] = target: Activin receptor type-1 (Homo sapiens) (UniProt Q04771); conditions: Compound concentration 1000.0 nM
Activin receptor type-1 (Homo sapiens), sequence (Q04771 whole entry): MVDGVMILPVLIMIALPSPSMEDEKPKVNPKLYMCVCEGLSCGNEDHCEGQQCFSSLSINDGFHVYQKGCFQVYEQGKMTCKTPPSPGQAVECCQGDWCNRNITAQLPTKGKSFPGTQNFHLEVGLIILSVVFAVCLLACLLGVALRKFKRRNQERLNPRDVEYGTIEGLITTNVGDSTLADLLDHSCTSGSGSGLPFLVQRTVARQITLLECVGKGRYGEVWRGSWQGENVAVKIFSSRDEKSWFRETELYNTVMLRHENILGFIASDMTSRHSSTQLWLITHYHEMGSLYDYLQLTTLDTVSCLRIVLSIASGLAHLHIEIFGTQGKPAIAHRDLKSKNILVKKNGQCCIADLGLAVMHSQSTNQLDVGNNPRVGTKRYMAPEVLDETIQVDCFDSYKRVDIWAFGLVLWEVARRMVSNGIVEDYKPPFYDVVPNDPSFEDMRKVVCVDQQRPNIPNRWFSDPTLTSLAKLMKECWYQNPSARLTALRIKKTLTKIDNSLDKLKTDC

[7] = target: Activated CDC42 kinase 1 (Homo sapiens) (UniProt Q07912); conditions: Compound concentration 1000.0 nM
[8] = target: Tyrosine-protein kinase Yes (Homo sapiens) (UniProt P07947); conditions: Compound concentration 1000.0 nM
[9] = target: Activin receptor type-2A (Homo sapiens) (UniProt P27037); conditions: Compound concentration 1000.0 nM
[10] = target: GABA-A receptor; anion channel (Rattus norvegicus) (UniProt O09028+P15431+P18506+P18508+P19969+P20236+P23574+P23576+P28471+P28473+P30191+P62813+P63079+P63138+Q91ZM7+Q9ES14); conditions: Compound concentration 10.0 uM
[11] = target: Serine/threonine-protein kinase 16 (Homo sapiens) (UniProt O75716); conditions: Compound concentration 1000.0 nM
[12] = target: Mitogen-activated protein kinase 7 (Homo sapiens) (UniProt Q13164); conditions: Compound concentration 1000.0 nM
[13] = target: Dual specificity tyrosine-phosphorylation-regulated kinase 1A (Homo sapiens) (UniProt Q13627); conditions: Compound concentration 1000.0 nM
[14] = target: G protein-coupled receptor kinase 3 (Homo sapiens) (UniProt P35626); conditions: Compound concentration 1000.0 nM
[15] = target: Serine/threonine-protein kinase MRCK gamma (Homo sapiens) (UniProt Q6DT37); conditions: Compound concentration 1000.0 nM
Serine/threonine-protein kinase MRCK gamma (Homo sapiens), sequence (Q6DT37 whole entry): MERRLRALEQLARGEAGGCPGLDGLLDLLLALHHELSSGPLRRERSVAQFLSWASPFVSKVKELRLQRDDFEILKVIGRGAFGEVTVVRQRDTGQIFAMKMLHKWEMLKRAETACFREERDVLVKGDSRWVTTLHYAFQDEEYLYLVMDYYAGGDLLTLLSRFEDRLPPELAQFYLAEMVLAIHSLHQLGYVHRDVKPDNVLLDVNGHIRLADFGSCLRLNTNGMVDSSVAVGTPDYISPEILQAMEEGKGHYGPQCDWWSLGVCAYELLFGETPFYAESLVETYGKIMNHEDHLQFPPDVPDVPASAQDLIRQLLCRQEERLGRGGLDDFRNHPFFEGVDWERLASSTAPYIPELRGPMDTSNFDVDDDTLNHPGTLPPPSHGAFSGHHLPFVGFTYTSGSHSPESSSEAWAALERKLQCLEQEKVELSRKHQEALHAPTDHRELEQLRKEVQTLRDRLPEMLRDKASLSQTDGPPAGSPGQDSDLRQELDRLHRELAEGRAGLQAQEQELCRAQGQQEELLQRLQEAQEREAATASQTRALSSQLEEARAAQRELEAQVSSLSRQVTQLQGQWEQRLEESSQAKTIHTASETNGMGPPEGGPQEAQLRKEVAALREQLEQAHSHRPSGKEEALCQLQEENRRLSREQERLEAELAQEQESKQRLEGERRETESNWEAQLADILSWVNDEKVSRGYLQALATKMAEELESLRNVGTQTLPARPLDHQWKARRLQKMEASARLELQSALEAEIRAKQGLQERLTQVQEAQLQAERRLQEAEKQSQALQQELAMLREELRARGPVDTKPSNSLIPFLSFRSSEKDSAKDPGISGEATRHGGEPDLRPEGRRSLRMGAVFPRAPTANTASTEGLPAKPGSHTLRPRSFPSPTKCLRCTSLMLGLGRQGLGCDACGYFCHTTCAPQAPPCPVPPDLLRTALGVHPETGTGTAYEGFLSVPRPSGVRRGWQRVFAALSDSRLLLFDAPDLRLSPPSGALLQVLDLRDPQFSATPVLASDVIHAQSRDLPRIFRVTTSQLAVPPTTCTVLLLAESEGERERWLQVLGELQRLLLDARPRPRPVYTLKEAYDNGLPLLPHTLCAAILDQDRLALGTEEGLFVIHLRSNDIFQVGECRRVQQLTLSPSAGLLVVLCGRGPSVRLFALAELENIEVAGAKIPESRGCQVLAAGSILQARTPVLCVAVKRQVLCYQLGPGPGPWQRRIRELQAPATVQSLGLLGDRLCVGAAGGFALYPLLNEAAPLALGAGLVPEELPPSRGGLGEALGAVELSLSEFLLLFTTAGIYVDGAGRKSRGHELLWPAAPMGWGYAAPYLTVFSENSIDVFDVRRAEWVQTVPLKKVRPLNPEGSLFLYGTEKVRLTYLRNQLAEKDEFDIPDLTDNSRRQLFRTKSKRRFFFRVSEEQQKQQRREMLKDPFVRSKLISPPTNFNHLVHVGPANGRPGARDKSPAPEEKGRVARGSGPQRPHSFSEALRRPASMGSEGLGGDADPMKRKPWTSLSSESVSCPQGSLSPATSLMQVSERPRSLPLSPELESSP

[16] = target: Serine/threonine-protein kinase PAK 3 (Homo sapiens) (UniProt O75914); conditions: Compound concentration 1000.0 nM
[17] = target: Ephrin type-B receptor 3 (Homo sapiens) (UniProt P54753); conditions: Compound concentration 1000.0 nM
[18] = target: Serine/threonine-protein kinase LATS2 (Homo sapiens) (UniProt Q9NRM7); conditions: Compound concentration 1000.0 nM
[19] = system: eIF-2-alpha kinase GCN2 (Homo sapiens), Q9P2K8 [S808G]; conditions: Compound concentration 1000.0 nM
[20] = target: Protein kinase C eta type (Homo sapiens) (UniProt P24723); conditions: Compound concentration 1000.0 nM
[21] = target: Microtubule-associated serine/threonine-protein kinase 1 (Homo sapiens) (UniProt Q9Y2H9); conditions: Compound concentration 1000.0 nM
[22] = target: Serine/threonine-protein kinase mTOR (Homo sapiens) (UniProt P42345); conditions: Compound concentration 1000.0 nM
[23] = system: Epidermal growth factor receptor (Homo sapiens), P00533 [UNDEFINED MUTATION]; conditions: Compound concentration 1000.0 nM
[24] = target: STE20-like serine/threonine-protein kinase (Homo sapiens) (UniProt Q9H2G2); conditions: Compound concentration 1000.0 nM
[25] = target: Mitogen-activated protein kinase 13 (Homo sapiens) (UniProt O15264); conditions: Compound concentration 1000.0 nM
[26] = target: Platelet-derived growth factor receptor alpha (Homo sapiens) (UniProt P16234); conditions: Compound concentration 1000.0 nM
[27] = system: Tyrosine-protein kinase ABL1 (Homo sapiens), P00519 [Q252H]; conditions: Compound concentration 1000.0 nM
[28] = target: Cytoplasmic tyrosine-protein kinase BMX (Homo sapiens) (UniProt P51813); conditions: Compound concentration 1000.0 nM
[29] = target: Serine/threonine-protein kinase PAK 6 (Homo sapiens) (UniProt Q9NQU5); conditions: Compound concentration 1000.0 nM
[30] = target: Receptor tyrosine-protein kinase erbB-3 (Homo sapiens) (UniProt P21860); conditions: Compound concentration 1000.0 nM
[31] = target: Mitogen-activated protein kinase kinase kinase 19 (Homo sapiens) (UniProt Q56UN5); conditions: Compound concentration 1000.0 nM
[32] = target: Serine/threonine-protein kinase BRSK2 (Homo sapiens) (UniProt Q8IWQ3); conditions: Compound concentration 1000.0 nM
[33] = target: Homeodomain-interacting protein kinase 4 (Homo sapiens) (UniProt Q8NE63); conditions: Compound concentration 1000.0 nM
[34] = target: Cyclin-dependent kinase 4 (Homo sapiens) (UniProt P11802); conditions: Compound concentration 1000.0 nM
[35] = target: Serine/threonine-protein kinase 33 (Homo sapiens) (UniProt Q9BYT3); conditions: Compound concentration 1000.0 nM
Serine/threonine-protein kinase 33 (Homo sapiens), sequence (Q9BYT3 whole entry, looked up): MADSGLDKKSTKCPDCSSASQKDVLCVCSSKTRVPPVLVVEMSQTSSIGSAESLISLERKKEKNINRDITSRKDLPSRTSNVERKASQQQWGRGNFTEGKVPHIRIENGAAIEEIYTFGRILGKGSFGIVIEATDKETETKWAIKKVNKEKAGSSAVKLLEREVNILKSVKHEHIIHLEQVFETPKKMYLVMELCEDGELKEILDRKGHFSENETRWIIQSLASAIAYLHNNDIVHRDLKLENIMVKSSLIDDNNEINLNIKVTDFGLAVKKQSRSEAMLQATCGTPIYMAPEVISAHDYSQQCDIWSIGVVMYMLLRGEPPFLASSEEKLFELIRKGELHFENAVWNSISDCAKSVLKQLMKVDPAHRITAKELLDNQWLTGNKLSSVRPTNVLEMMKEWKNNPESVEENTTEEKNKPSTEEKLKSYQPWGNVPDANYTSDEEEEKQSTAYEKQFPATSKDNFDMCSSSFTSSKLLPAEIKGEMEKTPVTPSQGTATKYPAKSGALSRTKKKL

[36] = target: Phosphatidylinositol 3-kinase catalytic subunit type 3 (Homo sapiens) (UniProt Q8NEB9); conditions: Compound concentration 1000.0 nM
[37] = system: Receptor-type tyrosine-protein kinase FLT3 (Homo sapiens), P36888 [D835V]; conditions: Compound concentration 1000.0 nM
[38] = target: Delta-type opioid receptor (Homo sapiens) (UniProt P41143); conditions: Compound concentration 10.0 uM
[39] = target: Histamine H4 receptor (Homo sapiens) (UniProt Q9H3N8); conditions: Compound concentration 10.0 uM
[40] = target: MAP kinase-interacting serine/threonine-protein kinase 2 (Homo sapiens) (UniProt Q9HBH9); conditions: Compound concentration 1000.0 nM
MAP kinase-interacting serine/threonine-protein kinase 2 (Homo sapiens), sequence (Q9HBH9 whole entry, looked up): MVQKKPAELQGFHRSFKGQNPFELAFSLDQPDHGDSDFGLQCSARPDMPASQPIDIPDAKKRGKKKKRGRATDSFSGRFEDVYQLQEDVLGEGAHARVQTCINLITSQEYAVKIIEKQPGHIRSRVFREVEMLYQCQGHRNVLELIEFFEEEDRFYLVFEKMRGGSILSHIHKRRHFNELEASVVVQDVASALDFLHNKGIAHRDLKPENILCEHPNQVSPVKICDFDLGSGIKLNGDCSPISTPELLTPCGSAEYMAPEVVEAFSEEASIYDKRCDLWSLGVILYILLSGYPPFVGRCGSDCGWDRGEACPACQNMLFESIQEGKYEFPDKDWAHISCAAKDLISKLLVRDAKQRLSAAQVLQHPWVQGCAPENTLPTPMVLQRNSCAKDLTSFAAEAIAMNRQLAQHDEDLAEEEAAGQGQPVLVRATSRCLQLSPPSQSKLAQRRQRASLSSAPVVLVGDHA

[41] = target: Tyrosine-protein kinase Lck (Homo sapiens) (UniProt P06239); conditions: Compound concentration 1000.0 nM
[42] = target: Serine/threonine-protein kinase SIK2 (Homo sapiens) (UniProt Q9H0K1); conditions: Compound concentration 1000.0 nM
Serine/threonine-protein kinase SIK2 (Homo sapiens), sequence (Q9H0K1 whole entry, looked up): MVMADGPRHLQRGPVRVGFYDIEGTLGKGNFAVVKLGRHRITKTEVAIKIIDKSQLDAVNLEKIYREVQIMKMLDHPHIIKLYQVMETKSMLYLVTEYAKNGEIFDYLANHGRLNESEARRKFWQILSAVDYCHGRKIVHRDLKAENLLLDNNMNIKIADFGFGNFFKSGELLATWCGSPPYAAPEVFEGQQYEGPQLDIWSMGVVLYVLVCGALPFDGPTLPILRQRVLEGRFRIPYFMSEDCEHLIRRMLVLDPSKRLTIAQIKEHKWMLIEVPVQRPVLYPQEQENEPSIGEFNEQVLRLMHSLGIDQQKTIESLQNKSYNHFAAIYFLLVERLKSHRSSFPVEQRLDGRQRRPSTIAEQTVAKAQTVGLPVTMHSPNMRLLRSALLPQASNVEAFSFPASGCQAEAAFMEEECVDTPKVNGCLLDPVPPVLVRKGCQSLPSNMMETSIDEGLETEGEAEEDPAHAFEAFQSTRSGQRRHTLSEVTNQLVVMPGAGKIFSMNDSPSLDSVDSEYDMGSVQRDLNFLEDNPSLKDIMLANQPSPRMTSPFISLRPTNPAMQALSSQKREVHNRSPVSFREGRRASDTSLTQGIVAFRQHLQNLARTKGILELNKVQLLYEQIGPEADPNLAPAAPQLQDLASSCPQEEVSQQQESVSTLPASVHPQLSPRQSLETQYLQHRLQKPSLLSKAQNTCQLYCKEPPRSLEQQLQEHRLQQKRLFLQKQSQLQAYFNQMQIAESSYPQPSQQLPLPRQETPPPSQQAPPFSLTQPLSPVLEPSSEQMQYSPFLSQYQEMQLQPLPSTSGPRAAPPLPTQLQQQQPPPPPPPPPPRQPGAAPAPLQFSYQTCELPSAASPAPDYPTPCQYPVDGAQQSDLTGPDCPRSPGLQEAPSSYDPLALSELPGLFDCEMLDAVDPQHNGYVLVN

[43] = target: Ephrin type-B receptor 4 (Homo sapiens) (UniProt P54760); conditions: Compound concentration 1000.0 nM
Ephrin type-B receptor 4 (Homo sapiens), sequence (P54760 whole entry): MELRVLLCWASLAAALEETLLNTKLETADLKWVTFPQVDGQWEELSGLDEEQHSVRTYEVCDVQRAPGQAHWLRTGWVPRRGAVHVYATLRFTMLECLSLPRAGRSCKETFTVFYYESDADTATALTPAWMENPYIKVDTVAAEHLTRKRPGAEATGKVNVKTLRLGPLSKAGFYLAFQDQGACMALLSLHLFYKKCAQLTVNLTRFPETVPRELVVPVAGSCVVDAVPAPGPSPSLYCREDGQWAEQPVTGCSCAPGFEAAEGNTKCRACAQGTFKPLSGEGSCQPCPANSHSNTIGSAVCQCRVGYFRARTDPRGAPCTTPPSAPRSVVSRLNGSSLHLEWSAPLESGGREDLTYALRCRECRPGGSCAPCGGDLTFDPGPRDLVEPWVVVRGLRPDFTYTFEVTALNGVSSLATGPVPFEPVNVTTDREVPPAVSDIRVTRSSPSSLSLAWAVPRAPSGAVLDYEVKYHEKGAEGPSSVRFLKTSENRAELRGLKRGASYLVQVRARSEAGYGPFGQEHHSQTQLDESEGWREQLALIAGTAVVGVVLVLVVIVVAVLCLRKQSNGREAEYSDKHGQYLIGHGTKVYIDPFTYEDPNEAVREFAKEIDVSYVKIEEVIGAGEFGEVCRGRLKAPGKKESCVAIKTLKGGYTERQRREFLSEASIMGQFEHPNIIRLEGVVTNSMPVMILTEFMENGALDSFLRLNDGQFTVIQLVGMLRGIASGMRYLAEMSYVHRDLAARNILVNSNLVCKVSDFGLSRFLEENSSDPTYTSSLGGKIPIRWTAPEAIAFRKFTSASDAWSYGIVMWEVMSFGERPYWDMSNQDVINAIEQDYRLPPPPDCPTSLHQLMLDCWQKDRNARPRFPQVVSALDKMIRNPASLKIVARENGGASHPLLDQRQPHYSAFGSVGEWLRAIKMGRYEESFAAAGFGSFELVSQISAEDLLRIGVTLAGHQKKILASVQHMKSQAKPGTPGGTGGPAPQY

[44] = target: Dual specificity tyrosine-phosphorylation-regulated kinase 1B (Homo sapiens) (UniProt Q9Y463); conditions: Compound concentration 1000.0 nM

## CCS(=O)(=O)c1cc2cc(C[C@](O)(CC(C)(C)c3ccc(F)cc3C(N)=O)C(F)(F)F)[nH]c2cn1
[1]
  residual activity: 78%
[2]
  residual activity: 100%
[3]
  residual activity: 100%
[4]
  residual activity: 90%
[5]
  residual activity: 80%
[6]
  residual activity: 100%
[7]
  residual activity: 100%
[8]
  residual activity: 100%
[9]
  residual activity: 100%
[10]
  inhibition: 11%
[11]
  residual activity: 100%
[12]
  residual activity: 97%
[13]
  residual activity: 100%
[14]
  residual activity: 100%
[15]
  residual activity: 100%
[16]
  residual activity: 100%
[17]
  residual activity: 100%
[18]
  residual activity: 40%
[19]
  residual activity: 89%
[20]
  residual activity: 94%
[21]
  residual activity: 100%
[22]
  residual activity: 77%
[23]
  residual activity: 100%
[24]
  residual activity: 100%
[25]
  residual activity: 100%
[26]
  residual activity: 82%
[27]
  residual activity: 100%
[28]
  residual activity: 74%
[29]
  residual activity: 100%
[30]
  residual activity: 100%
[31]
  residual activity: 93%
[32]
  residual activity: 100%
[33]
  residual activity: 100%
[34]
  residual activity: 96%
[35]
  residual activity: 97%
[36]
  residual activity: 100%
[37]
  residual activity: 95%
[38]
  inhibition: -2.58%
[39]
  inhibition: 3.88%
[40]
  residual activity: 100%
[41]
  residual activity: 100%
[42]
  residual activity: 100%
[43]
  residual activity: 100%
[44]
  residual activity: 88%

## CCS(=O)(=O)c1cc2cc(C[C@@](O)(CC(C)(C)c3ccc(F)cc3C(N)=O)C(F)(F)F)[nH]c2cn1
[1]
  residual activity: 88%
[2]
  residual activity: 82%
[3]
  residual activity: 85%
[4]
  residual activity: 100%
[5]
  residual activity: 87%
[6]
  residual activity: 100%
[7]
  residual activity: 100%
[8]
  residual activity: 100%
[9]
  residual activity: 94%
[10]
  inhibition: 19.5%
[11]
  residual activity: 91%
[12]
  residual activity: 81%
[13]
  residual activity: 66%
[14]
  residual activity: 73%
[15]
  residual activity: 96%
[16]
  residual activity: 100%
[17]
  residual activity: 92%
[18]
  residual activity: 100%
[19]
  residual activity: 94%
[20]
  residual activity: 100%
[21]
  residual activity: 100%
[22]
  residual activity: 100%
[23]
  residual activity: 100%
[24]
  residual activity: 88%
[25]
  residual activity: 96%
[26]
  residual activity: 99%
[27]
  residual activity: 79%
[28]
  residual activity: 50%
[29]
  residual activity: 77%
[30]
  residual activity: 100%
[31]
  residual activity: 76%
[32]
  residual activity: 72%
[33]
  residual activity: 100%
[34]
  residual activity: 97%
[35]
  residual activity: 91%
[36]
  residual activity: 96%
[37]
  residual activity: 79%
[38]
  inhibition: -3.88%
[39]
  inhibition: 2.05%
[40]
  residual activity: 87%
[41]
  residual activity: 81%
[42]
  residual activity: 100%
[43]
  residual activity: 100%
[44]
  residual activity: 100%
